The results in this text go back to patent publication US7825256B2, “Inducible nitric oxide synthase dimerization inhibitors” (Kalypsys, Inc., priority 2004, dated 2010).

This test deals with rat. The test can be described thus: Carrageenan test (inflamed pain). It is filed as in vivo. As to conditions: inhibition class. An excerpt: Injection of carrageenan subcutaneously into the hind foot (paw) of a rat induces robust inflammation and pain. The inflammatory response begins 1-2 hrs post-carrageenan injection and persists for at least five hours following inoculation. In addition, the rat's inflamed hind paw is sensitive to noxious (hyperalgesia) or innocuous (allodynia) stimuli, compared to the contralateral hind paw. Compounds can be evaluated in this model for anti-hyperalgesia and anti-inflammatory activity. […] It is possible that some compounds will affect the inflamed paw and not affect the responses of the contralateral paw.
Embodiments of the carrageenan foot edema test are performed with materials, reagents and procedures essentially as described by Winter, et al., (Proc. Soc. Exp. Biol. Med., 111, 544 (1962)). […] The rats are evaluated for their responsiveness to noxious (paw pinch, plantar test) or innocuous (cold plate, von Frey filaments) stimuli.
In a prophylactic embodiment, following determination of “Pre-carrageenan” responses, a subplantar injection of the test compound or a placebo are administered. […] Three hours (and optionally five hours) after carrageenan injection, the rats are evaluated for their responsiveness to noxious or innocuous stimuli and the paw volume was again measured. […]

With `CN(CCCNCc1ccc2c(c1)OCO2)c1nc(-n2ccnc2)ns1` [Example 2, N′-Benzo[1,3]dioxol-5-ylmethyl-N-(3-imidazol-1-yl-[1,2,4]thiadiazol-5-yl)-N-methyl-propane-1,3-diamine], the “Carrageenan Inflamed Pain at 30 mg/kg” value is on record as “− ((−) = <40% inhibition)”.
